Like-named read-outs stand apart in the source and are kept apart here.
Experiments:
[1] = tested on: Pyricularia oryzae Cavara KJ301 strain; assay type: in vivo; details: sprayed on rice one day before inoculation
[2] = tested on: Pyricularia oryzae Cavara KJ301 strain; assay type: in vivo; details: 100 ppm, soil irrigation (10 mL) 24 hours before inoculation
[3] = tested on: Pyricularia oryzae Cavara KJ301 strain; assay type: in vivo; details: sprayed one day after inoculation
Rhizoctonia solani AG-1 = test: Protective effect test on rice sheath blight (RSB); assay type: in vivo
Botrytis cinerea = test: Protective effect test on cucumber gray mould (CGM); assay type: in vivo
Phytophthora infestans = assay type: in vivo; details: sprayed on tomato one day before inoculation
Puccinia recondita [4] = test: Protective effect test on wheat leaf rust (WLR); assay type: in vivo
[5] = tested on: Erysiphe graminis f. sp. hordei; test: Protective effect test on barley powdery mildew (BPM); assay type: in vivo
Puccinia recondita [6] = details: in vivo
[7] = tested on: Erysiphe graminis f. sp. hordei; details: in vivo
Puccinia recondita [8] = test: Systemic effect test on wheat leaf rust; assay type: in vivo
Pythium ultimum = test: Protective effect test on cucumber damping off (CDO); assay type: in vivo; details: soil irrigation (10 mL), disease index after 7 days
Protocol: The potato mixture was inoculated with a plant pat hogen causing cucumber damping off, Pythium ultimum, incubated at 25° C. for 15 days in a growth chamb e r and used as inoculum. Soil (150 mL) prepared by mixing vermiculite and field soil (1:1) was sterilized and mixed with the potato mixture (1 g) to use it as inoculum. After filling the inoculated soil in the pot (diameter 9 cm), five cucumber seeds (house Baekdadagio® cucumber) were sown in the above pot and irrigated with the agricultural fungicidal compositions (10 mL) prepared at the appropriate concentrations. Seven days after the treating with the agricultural fungicidal compositions, a degree of the disease induction was examined based upon criteria for determining the disease index, and control efficacy was determined according to the above examination. The criteria was listed in the following. Criteria 4: seeds don't germinate due to disease outbreak. 3: a young seedling dies in the middle of emergence. 2: ground surface is narrowed due to disease outbreak. 1: growth is poor due to disease outbreak of partial roots. 0: healthy plant […] For only cucumber damping off, it was examined according to the above-mentioned separate criteria.

Sphaerotheca fuliginea = test: Protective effect test on cucumber powdery mildew (CPM); assay type: in vivo; details: sprayed on cucumber one day before inoculation
Protocol: A plant pathogen, Sphaerotheca fuliginea, was prepared by collecting the diseased leaves of cucumber grown in a vinylhouse, and its spores were suspended in sterilized water. The concentration of the pathogenic spores was adjusted to 10^5 spores/mL and used as inoculum. After a cucumber seed (house ‘Baekdadagi®’ cucumber) was sown in a small pot (diameter 6.5 cm), it was grown in a greenhouse for two weeks and young seedlings with the first true completely open leaf were used for test. After the young seedlings of the cucumber in the small pots were sprayed with agricultural fungicidal compositions prepared at the appropriate concentrations, they were left for 1 day in a greenhouse to dry the fungicidal compositions. The young seedlings of cucumber were inoculated with the prepared pathogenic spores of cucumber powdery mildew by spraying and incubated for 10 days in a green house to induce the disease. A ratio of the diseased areas to total areas of the first true completely open leaves was determined according to the criteria for determining a degree of disease induction. […] For only cucumber damping off, it was examined according to the above-mentioned separate criteria.

Venturia inaequalis = test: Protective effect test on apple scab (APS); assay type: in vivo; details: apple seedlings treated one day before inoculation
[9] = tested on: Colletotrichum lagenarium; test: Protective effect test on cucumber anthracnose (CUA); assay type: in vivo; details: cucumber treated one day before inoculation
Bipolaris maydis = test: Protective effect test on southern corn leaf blight (CLB); assay type: in vivo; details: corn treated one day before inoculation
Protocol: A plant pathogen, Bipolaris maydis, was inoculated on the Difco Lima Bean Agar (10 g/L) medium containing 10 g/L dextrose, and incubated at 24° C. with and without fluorescent light for 12 hours each time for 7 days in a growth chamber. After forming spores, the conidiospore was harvested in Tween-20 solution (250 ppm), adjusted at the concentration of 5×10^5 spores/ml and used as inoculum. The southern corn (golden crossbantam 70) for test was grown to be at 4 or 5-leaf stage in a greenhouse. One day after the treating with the agricultural fungicidal compositions, the inoculum was sprayed an young seedlings of the corn, and incubated at 27° C. and 100% relative humidity for 24 hours in a dew chamber to infiltrate the pathogen. The young seedling were incubated at 27° C. and 90% relative humidity for 3 days in a growth chamber to induce the disease. A ratio of diseased areas to total areas of the corn leaves was examined according to the criteria for determining a degree of disease induction.
In the above experiment 2, control value of the compound on the tested pathogens was calculated according to the following mathematical formula 1, and the results were shown in Table 2. For only cucumber damping off, it was examined according to the above-mentioned separate criteria.
Control value(%)=(1—the ratio of diseased area in the treated plant/the ratio of diseased area in the untreated plant)×100

[10] = tested on: Erysiphe graminis f. sp. hordei; test: Systemic effect test on barley powdery mildew; assay type: in vivo; details: soil irrigation (10 mL) 24 hours before inoculation

`Cc1cccc2sc3nncn3c12` [A, Tricyclazole] was tested. Which “Control value (%) RCB” value ([1]; 50 ppm) did it give?
Its value is 90%.

And the “Control value (%) RCB S.E. (systemic effect)” value [2]?
Its value is 87%.

What about the “Control value (%) RCB C.E. (curative effect)” value ([3]; 100 ppm) of the same compound?
Its value is 0%.

`OCC1=C[C@H](N[C@H]2C[C@H](CO)[C@@H](O[C@@H]3O[C@H](CO)[C@@H](O)[C@H](O)[C@H]3O)[C@H](O)[C@H]2O)[C@H](O)[C@@H](O)[C@@H]1O` [B, Validamycin, reference compound] was tested. Which “Control value (%) RSB” value (Rhizoctonia solani AG-1; in vivo) did it give?
The value was 50%.

With `CC12CC1(C)C(=O)N(c1cc(Cl)cc(Cl)c1)C2=O` (stereo not shown) [C, Procymidone, reference compound] as the compound, how does the “Control value (%) CGM” value (Botrytis cinerea; in vivo) read?
Its value is 40%.

How did the “Control value (%) TLB” value (Phytophthora infestans; 10 ppm) turn out when `COc1ccc(C(=CC(=O)N2CCOCC2)c2ccc(Cl)cc2)cc1OC` [D, Dimethomotph, reference compound] was run?
Its value is 80%.

For `C[Si](Cn1cncn1)(c1ccc(F)cc1)c1ccc(F)cc1` [E, Flusilazole, reference compound], which “Control value (%) WLR” value (Puccinia recondita [4]; in vivo) is on record?
Its value is 85%.

What about the “Control value (%) BPM” value ([5]; in vivo) of the same compound?
Its value is 85%.

What about the “Control value (%) WLB C.E. (curative effect)” value (Puccinia recondita [6]) of the same compound?
The value was 97%.

And the “Control value (%) BPM C.E. (curative effect)” value [7]?
The value was 81%.

What does the source list for `CO/N=C(/C(=O)OC)c1ccccc1COc1ccccc1C` [F, Kresoxim methyl, reference compound]?
Control value (%) RCB ([1]; 10 ppm): 98%; Control value (%) RSB (Rhizoctonia solani AG-1; in vivo): 5%; Control value (%) CGM (Botrytis cinerea; in vivo): 10%; Control value (%) TLB (Phytophthora infestans; 10 ppm): 57%; Control value (%) WLR (Puccinia recondita [4]; in vivo): 93%; Control value (%) BPM ([5]; in vivo): 94%; Control value (%) RCB S.E. (systemic effect) [2]: 0%; Control value (%) RCB C.E. (curative effect) ([3]; 10 ppm): 39%; Control value (%) WLB S.E. (systemic effect) (Puccinia recondita [8]; in vivo): 0%; Control value (%) WLB C.E. (curative effect) (Puccinia recondita [6]): 0%; Control value (%) BPM C.E. (curative effect) [7]: 50%

What does the source list for `CCCCNC(=O)n1c(NC(=O)OC)nc2ccccc21` [K, Benomyl, reference compound]?
Control value (%) CDO (Pythium ultimum; 10 ppm): 20%; Control value (%) CPM (Sphaerotheca fuliginea; 10 ppm): 85%; Control value (%) APS (Venturia inaequalis; 10 ppm): 85%; Control value (%) CUA ([9]; 10 ppm): 65%

Which “Control value (%) RCB” value ([1]; 2 ppm) does the source give for `CNC(=O)/C(=N/OC)c1c(C)cccc1COc1ccccc1C` [The compound of formula 1, N-methyl E-2-((2-methylphenyl)oxymethyl)-6-methylphenylglyoxylamide O-methyl oxime] here?
Its value is 100%.

What about the “Control value (%) RCB” value ([1]; 10 ppm) of the same compound?
The value was 100%.

And the “Control value (%) RSB” value (Rhizoctonia solani AG-1; 2 ppm, sprayed on rice one day before inoculation)?
Its value is 21%.

And the “Control value (%) RSB” value (Rhizoctonia solani AG-1; 10 ppm, sprayed on rice one day before inoculation)?
Its value is 53%.

What about the “Control value (%) CGM” value (Botrytis cinerea; 2 ppm, sprayed on cucumber one day before inoculation) of the same compound?
Its value is 30%.

What about the “Control value (%) CGM” value (Botrytis cinerea; 10 ppm, sprayed on cucumber one day before inoculation) of the same compound?
Its value is 40%.

What about the “Control value (%) TLB” value (Phytophthora infestans; 2 ppm) of the same compound?
Its value is 79%.

And the “Control value (%) TLB” value (Phytophthora infestans; 10 ppm)?
Its value is 89%.

What about the “Control value (%) WLR” value (Puccinia recondita [4]; 2 ppm, sprayed on wheat one day before inoculation) of the same compound?
The value was 99%.

And the “Control value (%) WLR” value (Puccinia recondita [4]; 10 ppm, sprayed on wheat one day before inoculation)?
The value was 100%.

And the “Control value (%) BPM” value ([5]; 2 ppm, sprayed on barley one day before inoculation)?
The value was 98%.

And the “Control value (%) BPM” value ([5]; 10 ppm, sprayed on barley one day before inoculation)?
Its value is 100%.

What about the “Control value (%) CDO” value (Pythium ultimum; 1 ppm) of the same compound?
The value was 30%.

What about the “Control value (%) CDO” value (Pythium ultimum; 10 ppm) of the same compound?
Its value is 100%.

And the “Control value (%) CDO” value (Pythium ultimum; 100 ppm)?
Its value is 100%.

And the “Control value (%) CPM” value (Sphaerotheca fuliginea; 1 ppm)?
The value was 80%.

And the “Control value (%) CPM” value (Sphaerotheca fuliginea; 10 ppm)?
The value was 100%.

And the “Control value (%) CPM” value (Sphaerotheca fuliginea; 100 ppm)?
Its value is 100%.

What about the “Control value (%) APS” value (Venturia inaequalis; 1 ppm) of the same compound?
Its value is 60%.

What about the “Control value (%) APS” value (Venturia inaequalis; 10 ppm) of the same compound?
The value was 92%.

And the “Control value (%) APS” value (Venturia inaequalis; 100 ppm)?
The value was 100%.

What about the “Control value (%) CLB” value (Bipolaris maydis; 10 ppm) of the same compound?
The value was 80%.

And the “Control value (%) CLB” value (Bipolaris maydis; 100 ppm)?
The value was 90%.

What about the “Control value (%) CUA” value ([9]; 1 ppm) of the same compound?
The value was 80%.

And the “Control value (%) CUA” value ([9]; 10 ppm)?
The value was 100%.

What about the “Control value (%) CUA” value ([9]; 100 ppm) of the same compound?
The value was 100%.

What about the “Control value (%) RCB S.E. (systemic effect)” value [2] of the same compound?
The value was 56%.

And the “Control value (%) RCB C.E. (curative effect)” value ([3]; 10 ppm)?
Its value is 84%.

And the “Control value (%) WLB S.E. (systemic effect)” value (Puccinia recondita [8]; 2 ppm, soil irrigation (10 mL) 24 hours before inoculation)?
The value was 43%.

And the “Control value (%) WLB S.E. (systemic effect)” value (Puccinia recondita [8]; 10 ppm, soil irrigation (10 mL) 24 hours before inoculation)?
The value was 100%.

What about the “Control value (%) WLB S.E. (systemic effect)” value (Puccinia recondita [8]; 100 ppm, soil irrigation (10 mL) 24 hours before inoculation) of the same compound?
Its value is 100%.

What about the “Control value (%) WLB C.E. (curative effect)” value (Puccinia recondita [6]) of the same compound?
The value was 100%.

And the “Control value (%) BPM S.E. (systemic effect)” value ([10]; 2 ppm)?
Its value is 67%.

What about the “Control value (%) BPM S.E. (systemic effect)” value ([10]; 10 ppm) of the same compound?
The value was 80%.

And the “Control value (%) BPM S.E. (systemic effect)” value ([10]; 100 ppm)?
Its value is 100%.

And the “Control value (%) BPM C.E. (curative effect)” value [7]?
Its value is 100%.

With Mancozeb [L, reference compound] as the compound, how does the “Control value (%) APS” value (Venturia inaequalis; 100 ppm) read?
The value was 82%.

What about the “Control value (%) CLB” value (Bipolaris maydis; 100 ppm) of the same compound?
Its value is 80%.

And the “Control value (%) CUA” value ([9]; 100 ppm)?
The value was 85%.
